US5498623A, “4(5) substituted imidazoles and their preparation and use” (Orion-yhtyma Oy, priority 1991, dated 1996)
Read-outs that look alike come from different tables or passages of the source.

Key:
α1-adrenoceptor [1] = experiment: α1-Antagonism in vitro, isolated epididymal portion of rat vas deferens (vs phenylephrine); settings: contraction induced by phenylephrine
Procedure: (§1) To obtain information also on the selectivity of the antagonist between α1 - and α2 -receptors, its ability to inhibit or stimulate α1 -receptors was determined by means of isolated epididymal portion of rat vas deferens. The reference substances were now phenylephrine, a known α1 -agonist, and prazosin, a known α1 -antagonist. To determine α1 -antagonism, muscular contraction was induced by phenylephrine and the pA2 value of the studied compound was determined as above α1 -Agonist effect is presented as the pD2 value (negative logarithm of the molar concentration of the compound producing 50 percent of maximal contraction).

α2-adrenoceptor [2] = experiment: Duration of the α2-blocking action (antagonism of detomidine mydriasis after oral pretreatment); type: in vivo; settings: rat, equipotent doses, pretreatment 1, 2, 4, 7 or 16 hours, time for antagonist effect to fall by half
Procedure: The duration of the α2 -blocking action of the compounds was determined as follows: the antagonists were administered orally at equipotent doses to groups of 4 rats 1, 2, 4, 7 or 16 hours before induction of anaesthesia and challenge with cumulative i.v. dosing of detomidine. By calculating the percentage antagonism of the mydriatic effect of 0.1 mg/kg detomidine for each pretreatment group, a time-effect relationship was established. This in turn permitted the measurement of the time taken for the antagonist effect to fall by half.

α2-adrenoceptor [3] = experiment: α2-Adrenoceptor antagonism in vivo, reversal of detomidine-induced mydriasis in anaesthetized rat; settings: dose producing 50 per cent reversal of detomidine-induced mydriasis
Procedure: 2. α2 -Adrenoceptor antagonism in vivo
It is known that in the rat α2 -agonists induce dilatation of the pupil (mydriasis) which effect is transmitted via postsynaptic α2 -receptors in the central nervous system. In anaesthetized rat, a standard dose of an α2 -agonist, detomidine, was administered intravenously. Thereafter increasing doses of the studied antagonists were injected intravenously and the reversal of detomidine-induced mydriasis was followed. The ED50 value of the antagonist, i.e. the dose producing a 50 per cent reversal, was determined.

α2-adrenoceptor [4] = target: T1, α2-adrenoceptor (Rattus norvegicus, UniProt P22909); experiment: Relative peroral bioavailability (α2-blocking potency after peroral vs parenteral administration); type: in vivo; settings: equipotent doses 0.3 to 3 mg/kg, 1 hour before anaesthesia
T1 construct: transmitted via postsynaptic α2 -receptors in the central nervous system; from tissue; host or cells: whole anaesthetized rat (in vivo), central nervous system
T1 sequence (P22909 1-465): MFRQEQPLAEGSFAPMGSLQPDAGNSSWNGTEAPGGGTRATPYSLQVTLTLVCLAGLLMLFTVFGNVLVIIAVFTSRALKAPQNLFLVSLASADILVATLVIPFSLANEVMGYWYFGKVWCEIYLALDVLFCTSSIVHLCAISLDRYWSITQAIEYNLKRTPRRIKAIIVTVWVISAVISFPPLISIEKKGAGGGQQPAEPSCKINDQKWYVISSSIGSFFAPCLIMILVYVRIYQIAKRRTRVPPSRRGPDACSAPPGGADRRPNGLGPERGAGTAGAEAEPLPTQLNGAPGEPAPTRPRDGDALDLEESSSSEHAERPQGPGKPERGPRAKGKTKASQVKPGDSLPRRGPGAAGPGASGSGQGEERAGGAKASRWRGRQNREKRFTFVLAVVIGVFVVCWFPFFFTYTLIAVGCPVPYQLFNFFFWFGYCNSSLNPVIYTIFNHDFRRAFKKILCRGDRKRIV
Procedure: The relative bioavailability of the antagonists when administered orally was evaluated by comparing the potency of their α2 -blocking effect after peroral and parenteral administration. The antagonists were administered at equipotent doses (0.3 to 3 mg/kg) to groups of rats 1 hour before induction of anaesthesia and challenge with detomidine as described above in relation to the measurement of duration of action.

α1-adrenoceptor [5] = target: T2, α1-adrenoceptor (Rattus norvegicus, UniProt P43140); settings: for α1-Agonism (pD2) rat vas deferens / EC50: negative logarithm of molar concentration producing 50 percent of maximal contraction; for EC50: read-out: α1-Agonism (pD2) rat vas deferens (converted)
T2 sequence (P43140 1-466): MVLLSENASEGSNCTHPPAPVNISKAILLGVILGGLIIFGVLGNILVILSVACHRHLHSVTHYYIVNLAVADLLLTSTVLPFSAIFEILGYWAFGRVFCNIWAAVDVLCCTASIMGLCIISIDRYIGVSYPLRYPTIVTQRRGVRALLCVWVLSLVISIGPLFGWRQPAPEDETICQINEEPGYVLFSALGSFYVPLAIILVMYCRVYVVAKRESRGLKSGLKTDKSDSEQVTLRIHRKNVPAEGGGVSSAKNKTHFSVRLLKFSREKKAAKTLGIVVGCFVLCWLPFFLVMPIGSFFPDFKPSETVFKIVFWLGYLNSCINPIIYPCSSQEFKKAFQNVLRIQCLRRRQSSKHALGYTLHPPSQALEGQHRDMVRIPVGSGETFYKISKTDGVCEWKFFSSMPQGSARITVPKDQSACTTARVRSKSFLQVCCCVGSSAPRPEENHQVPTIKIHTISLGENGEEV
Procedure: as §1

α2-adrenoceptor [6] = target: T3, α2-adrenoceptor (Mus musculus, UniProt Q01338); experiment: α2-Antagonism in vitro, isolated electrically stimulated mouse vas deferens (vs detomidine)
T3 construct: isolated, electrically stimulated mouse vas deferens preparation; from tissue; host or cells: isolated mouse vas deferens
T3 sequence (Q01338 1-465): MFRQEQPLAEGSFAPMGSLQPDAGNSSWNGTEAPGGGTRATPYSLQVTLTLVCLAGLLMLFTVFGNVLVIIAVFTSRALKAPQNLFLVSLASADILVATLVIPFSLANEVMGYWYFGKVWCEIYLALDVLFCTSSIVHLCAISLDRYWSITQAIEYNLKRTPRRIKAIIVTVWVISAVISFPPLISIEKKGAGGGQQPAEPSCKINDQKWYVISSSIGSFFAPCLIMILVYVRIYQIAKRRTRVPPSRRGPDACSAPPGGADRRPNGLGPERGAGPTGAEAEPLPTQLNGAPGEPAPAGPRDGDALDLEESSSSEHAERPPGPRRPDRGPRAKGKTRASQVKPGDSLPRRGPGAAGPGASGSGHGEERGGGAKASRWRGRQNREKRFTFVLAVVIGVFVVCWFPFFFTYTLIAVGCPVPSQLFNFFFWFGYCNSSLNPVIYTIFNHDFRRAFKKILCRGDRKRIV
Procedure: 1. α2 -Antagonism in vitro
α2 -Antagonism was determined by means of isolated, electrically stimulated mouse vas deferens preparation (Marshall et al., Br. J. Pharmac. 62, 147, 151, 1978). In this model, α2 -agonist (detomidine) blocks electrically stimulated muscular contractions and the effect of the α2 -antagonist is seen by administering it prior to the agonist and by determining its pA2 value.

rats = experiment: Effects on learning and memory in linear arm maze task; type: in vivo, rat; settings: for learning and memory effect (overall): adult rats; for time to solve the task / number of errors (reentries into arms already visited): rats; for time to solve the task: effect on learning and speed to make correct choices; for number of errors (reentries into arms already visited): effect on working memory
Procedure: The linear arm maze is a modified version of radial arm maze, which is a generally used memory test in rats. […] Water was also used as control. All injections were made in a volume 1 ml/kg.
Apparatus: The maze was a wooden platform in a shape of two crosses one after another. The stem (starting arm) was 90 cm long and 12 cm wide. The five other arms (goal arms) were 50 cm long and 12 cm wide. Four goal arms were situated perpendicularly to the stem and to the fifth arm which located opposite to the stem. On either side of the stem and the arms were edges, 2.0 cm high. At the end of each goal arm a hole 1 cm deep and 3 cm in diameter, served as a food cup. The starting platform (20×20 cm) was separated from the stem by a quillotine door. The door was 12 cm high and 7 cm wide. The door frame was 20 cm high and 20 cm wide. The maze was elevated 31 cm above the floor, in a low-lighted test room which contained other objects as well as the test apparatus. The holes at the end of the goal arms were baited with three pellets of prize food (45 mg pellets Bio Serve Inc.).
Procedures: Two days prior to training, animals were placed on a food deprivation schedule that reduces their body weights to 90% of initial weights. During these days the rats were habituated to handling (three times/day), test room and prize food. On the second day they were also habituated to the unbaited maze: three to five animals from the same cage at the same time for ten minutes. On the third day the goal arms were baited, and the teaching trial, one rat at a time, was carried out. The rat received drug or distilled water and […] later it was placed in the starting platform. After ten seconds the door was opened and the rat was allowed to explore the maze until all the baits were found. The time to find all the baits and reentries made into already visited arms was recorded. This time every rate was allowed to stay in the maze at least for five minutes. On the next day the proper memory and learning testing began and continued for four days (testing days 1 to 4). Rats were given eight trials, two per day. Inter trial interval was 50 minutes. Drugs or distilled water were administered 30 minutes before the first trial of the day. Otherwise testing trials were identical to the teaching trial. All the observations were done blind so that test solutions were in coded flasks.
Statistical analysis: The results were expressed as mean time/trial/day (seconds) and mean errors/trial/day. The analysis of variance for the repeated measurements (ANOVA) was used to compare the drugs' and the testing days' effects on learning and memory.

[7] = Acute toxicity (LD50) using mice; settings: mouse, in vivo, po
Procedure: For example, the LD50 for 7-(4-(5-fluoro-2,3-dihydro-1H-inden-2-yl)-1H-imidazole) is 100 mg/kg (p.o.).

[8] = antagonist given prior to detomidine, mouse vas deferens, read-out: α2-Antagonism (pA2 vs detomidine) mouse vas deferens (converted)

| Peroral bioavailability (α2-adrenoceptor [4]) | α1-Agonism (pD2) rat vas deferens (α1-adrenoceptor [5]) | Kb (α2-adrenoceptor [6]; [8]) | SMILES | α1-Antagonism (pA2 vs phenylephrine) rat vas deferens (α1-adrenoceptor [1]) | t1/2 of α2-antagonism (α2-adrenoceptor [2]) | α2-Antagonism ED50 (iv) (α2-adrenoceptor [3]) | Kb (α2-adrenoceptor [6]) | also measured |
| --- | --- | --- | --- | --- | --- | --- | --- | --- |
| 81 | no effect | 6.31 nM | CCC1(c2c[nH]cn2)Cc2ccc(F)cc2C1 (stereo not drawn) [Compound 1, 4-(2-Ethyl-5-fluoro-2,3-dihydro-1H-inden-2-yl)-1H-imidazole] | no effect | 3 h | 0.015 mg/kg | – | – |
| – | – | 50.1 nM | CC1(c2c[nH]cn2)Cc2ccc(F)cc2C1 (stereo not drawn) [Compound 2, 4-(5-Fluoro-2,3-dihydro-2-methyl-1H-inden-2-yl)-1H-imidazole] | – | – | – | – | – |
| – | – | 63.1 nM | CCC1(c2c[nH]cn2)Cc2cc(F)c(F)cc2C1 [Compound 3, 4-(2-Ethyl-5,6-difluoro-2,3-dihydro-1H-inden-2-yl)-1H-imidazole] | – | – | – | – | – |
| 89 | no effect | 1260 nM | CCC1(c2c[nH]cn2)Cc2ccc(F)cc2C1=O (stereo not drawn) [Compound 4, 2-Ethyl-6-fluoro-2,3-dihydro-2-(1H-imidazol-4-yl)-1H-inden-1-one] | no effect | 6 h | 0.3 mg/kg | – | learning and memory effect (overall) (rats; 3 mg/kg p.o. (hydrochloride)): learning and memory enhancing effects; time to solve the task (rats; 3 mg/kg p.o. (hydrochloride)): decreased the time to solve the task; number of errors (reentries into arms already visited) (rats; 3 mg/kg p.o. (hydrochloride)): decreased number of errors |
| – | – | 251 nM | CCC1(c2c[nH]cn2)Cc2ccc(Cl)cc2C1=O (stereo not drawn) [Compound 5, 6-Chloro-2-ethyl-2,3-dihydro-2-(1H-imidazol-4-yl)-1H-inden-1-one] | – | – | – | – | – |
| – | – | – | Fc1cccc2c1CC(c1c[nH]cn1)C2 (stereo not drawn) [Compound 6, 4-(4-Fluoro-2,3-dihydro-1H-inden-2-yl)-1H-imidazole] | – | – | – | 7.94 nM | EC50 (α1-adrenoceptor [5]): 316 nM; α1-Agonism, type of agonist (full/partial) (α1-adrenoceptor [5]; rat vas deferens): full agonist |
| – | – | 63.1 nM | CCC1(c2c[nH]cn2)Cc2ccc(O)cc2C1 (stereo not drawn) [Compound 8, 2-Ethyl-2-(1H-imidazol-4-yl)-5-indanol] | – | – | – | – | – |

| SMILES | Peroral bioavailability (α2-adrenoceptor [4]) | α1-Agonism (pD2) rat vas deferens (α1-adrenoceptor [5]) | Kb (α2-adrenoceptor [6]; [8]) | α1-Antagonism (pA2 vs phenylephrine) rat vas deferens (α1-adrenoceptor [1]) | t1/2 of α2-antagonism (α2-adrenoceptor [2]) | α2-Antagonism ED50 (iv) (α2-adrenoceptor [3]) | Kb (α2-adrenoceptor [6]) | also measured |
| --- | --- | --- | --- | --- | --- | --- | --- | --- |
| Fc1ccc2c(c1)CC(c1c[nH]cn1)C2 (stereo not drawn) [Compound 7, 4-(5-Fluoro-2,3-dihydro-1H-inden-2-yl)-1H-imidazole] | 80 | – | – | – | 7 h | 0.01 mg/kg | 10 nM | LD50 [7]: 100 mg/kg; EC50 (α1-adrenoceptor [5]): 3160 nM; learning and memory effect (overall) (rats; 0.3 mg/kg s.c. (hydrochloride)): learning and memory enhancing effects; time to solve the task (rats; 0.3 mg/kg s.c. (hydrochloride)): decreased the time to solve the task; number of errors (reentries into arms already visited) (rats; 0.3 mg/kg s.c. (hydrochloride)): decreased number of errors |
| CCC1(c2cnc[nH]2)Cc2ccccc2C1 [atipamezole, reference compound] | – | no effect | – | 5.0 | 2 h | 0.01 mg/kg | 7.94 nM | learning and memory effect (overall) (rats; 0.3 mg/kg s.c. (hydrochloride)): learning and memory enhancing effects; time to solve the task (rats; 0.3 mg/kg s.c. (hydrochloride)): decreased the time to solve the task; number of errors (reentries into arms already visited) (rats; 0.3 mg/kg s.c. (hydrochloride)): decreased number of errors |
